Results published in ChEMBL document CHEMBL5518220, “The Discovery of 7-Isopropoxy-2-(1-methyl-2-oxabicyclo[2.1.1]hexan-4-yl)-N-(6-methylpyrazolo[1,5-a]pyrimidin-3-yl)imidazo[1,2-a]pyrimidine-6-carboxamide (BIO-7488), a Potent, Selective, and CNS-Penetrant IRAK4 Inhibitor for the Treatment of Ischemic Stroke” (J Med Chem, 2024).

Assays:
[1] = Unbound clearance in rat at 1 mg/kg, iv by LC-MS/MS analysis; assay type: ADME, organism-based; details: in vivo
[2] = Free drug level in male C57BL/6 mouse plasma at 10 mg/kg, po qd measured on 3 to 7 days; assay type: ADME, organism-based; details: in vivo, time 3-7 day
[3] = Oral bioavailability in dog at 1 mg/kg by LC-MS/MS analysis; assay type: ADME, organism-based, Canis lupus familiaris; details: in vivo
[4] = Half life in dog at 1 mg/kg, iv by LC-MS/MS analysis; assay type: ADME, organism-based, Canis lupus familiaris; details: in vivo
[5] = Half life in cynomolgus monkey at 1 mg/kg, iv by LC-MS/MS analysis; assay type: ADME, organism-based, Macaca fascicularis; details: in vivo
[6] = AUCinfinity in dog at 1 mg/kg, iv by LC-MS/MS analysis; assay type: ADME, organism-based, Canis lupus familiaris; details: in vivo
[7] = Tmax in cynomolgus monkey at 1 mg/kg, po by LC-MS/MS analysis; assay type: ADME, organism-based, Macaca fascicularis; details: in vivo
[8] = Unbound clearance in dog at 1 mg/kg, iv by LC-MS/MS analysis; assay type: ADME, organism-based, Canis lupus familiaris; details: in vivo
[9] = Oral bioavailability in cynomolgus monkey at 1 mg/kg by LC-MS/MS analysis; assay type: ADME, organism-based, Macaca fascicularis; details: in vivo
[10] = Oral bioavailability in rat at 1 mg/kg by LC-MS/MS analysis; assay type: ADME, organism-based; details: in vivo
[11] = Metabolic stability in human liver microsomes assessed as intrinsic clearance; assay type: ADME, Microsome; details: read-out: CLH
[12] = AUCinfinity in rat at 1 mg/kg, iv by LC-MS/MS analysis; assay type: ADME, organism-based; details: in vivo
[13] = AUCinfinity in mouse at 1 mg/kg, iv by LC-MS/MS analysis; assay type: ADME, organism-based; details: in vivo
[14] = Tmax in rat at 1 mg/kg, po by LC-MS/MS analysis; assay type: ADME, organism-based; details: in vivo
[15] = Tmax in dog at 1 mg/kg, po by LC-MS/MS analysis; assay type: ADME, organism-based, Canis lupus familiaris; details: in vivo
[16] = Tmax in mouse at 1 mg/kg, po by LC-MS/MS analysis; assay type: ADME, organism-based; details: in vivo
[17] = Clearance in rat at 1 mg/kg, iv by LC-MS/MS analysis; assay type: ADME, organism-based; details: in vivo
[18] = Volume of distribution at steady state in mouse at 1 mg/kg, iv by LC-MS/MS analysis; assay type: ADME, organism-based; details: in vivo, read-out: Vdss
[19] = Unbound clearance in mouse at 1 mg/kg, iv by LC-MS/MS analysis; assay type: ADME, organism-based; details: in vivo
[20] = Clearance in cynomolgus monkey at 1 mg/kg, iv by LC-MS/MS analysis; assay type: ADME, organism-based, Macaca fascicularis; details: in vivo
[21] = system: Mus musculus; assay: Inhibition of LPS-induced IL-1beta production in po dosed female C57BL/6 mouse assessed as reduction in IL-1beta level in plasma administered via oral gavage for 60 mins followed by LPS stimulation at 0.5 mg/kg, ip measured after 90 mins by ELISA; assay type: functional, organism-based
[22] = system: Mus musculus; assay: Inhibition of LPS-induced IL-6 production in po dosed female C57BL/6 mouse assessed as reduction in IL-6 level in plasma administered via oral gavage for 60 mins followed by LPS stimulation at 0.5 mg/kg, ip measured after 90 mins by ELISA; assay type: functional, organism-based
[23] = Lipophilicity, logD of compound in n-octanol and aqueous buffer at pH 7.4 by RP-HPLC method; assay type: physicochemical
[24] = AUCinfinity in cynomolgus monkey at 1 mg/kg, iv by LC-MS/MS analysis; assay type: ADME, organism-based, Macaca fascicularis; details: in vivo
[25] = system: Mus musculus; assay: Inhibition of LPS-induced TNF-alpha production in po dosed female C57BL/6 mouse assessed as reduction in TNF-alpha level in plasma administered via oral gavage for 60 mins followed by LPS stimulation at 0.5 mg/kg, ip measured after 90 mins by ELISA; assay type: functional, organism-based
[26] = Clearance in dog at 1 mg/kg, iv by LC-MS/MS analysis; assay type: ADME, organism-based, Canis lupus familiaris; details: in vivo
[27] = Unbound clearance in cynomolgus monkey at 1 mg/kg, iv by LC-MS/MS analysis; assay type: ADME, organism-based, Macaca fascicularis; details: in vivo
[28] = Volume of distribution at steady state in dog at 1 mg/kg, iv by LC-MS/MS analysis; assay type: ADME, organism-based, Canis lupus familiaris; details: in vivo, read-out: Vdss
[29] = Half life in rat at 1 mg/kg, iv by LC-MS/MS analysis; assay type: ADME, organism-based; details: in vivo
[30] = Volume of distribution at steady state in rat at 1 mg/kg, iv by LC-MS/MS analysis; assay type: ADME, organism-based; details: in vivo, read-out: Vdss
[31] = Inhibition of […] induced IL-1beta production in human whole blood preincubated for 1 hr followed by R848 stimulation and measured after 4 hrs by MSD assay; assay type: functional, tissue-based
[32] = Volume of distribution at steady state in cynomolgus monkey at 1 mg/kg, iv by LC-MS/MS analysis; assay type: ADME, organism-based, Macaca fascicularis; details: in vivo, read-out: Vdss
[33] = Half life in mouse at 1 mg/kg, iv by LC-MS/MS analysis; assay type: ADME, organism-based; details: in vivo
[34] = Oral bioavailability in mouse at 1 mg/kg by LC-MS/MS analysis; assay type: ADME, organism-based; details: in vivo
[35] = Metabolic stability in human hepatocytes assessed as intrinsic clearance; assay type: ADME, cell-based, Hepatocyte; details: read-out: CLH
[36] = Clearance in mouse at 1 mg/kg, iv by LC-MS/MS analysis; assay type: ADME, organism-based; details: in vivo
[37] = molecular target: T1, Dual specificity mitogen-activated protein kinase kinase 5 (Homo sapiens) (UniProt Q13163); assay: Binding affinity to MEK5 (unknown origin) at 100 to 1000 nM relative to control; details: dose 100-1000 nM
T1 sequence (whole entry): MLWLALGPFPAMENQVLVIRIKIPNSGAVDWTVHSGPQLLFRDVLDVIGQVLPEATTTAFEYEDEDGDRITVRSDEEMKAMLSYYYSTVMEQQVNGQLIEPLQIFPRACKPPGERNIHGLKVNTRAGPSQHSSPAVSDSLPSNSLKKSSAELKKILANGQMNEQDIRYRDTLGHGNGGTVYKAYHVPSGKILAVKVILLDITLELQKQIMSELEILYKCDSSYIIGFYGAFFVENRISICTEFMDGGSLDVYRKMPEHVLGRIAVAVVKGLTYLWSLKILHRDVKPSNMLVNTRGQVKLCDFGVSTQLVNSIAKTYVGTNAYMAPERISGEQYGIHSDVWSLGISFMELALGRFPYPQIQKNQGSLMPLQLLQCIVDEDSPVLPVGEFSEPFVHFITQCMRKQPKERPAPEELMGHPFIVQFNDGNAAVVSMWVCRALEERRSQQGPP

[38] = Metabolic stability in rat liver microsomes assessed as intrinsic clearance; assay type: ADME, Microsome; details: read-out: CLH
[39] = molecular target: T2, Interleukin-1 receptor-associated kinase 4 (Homo sapiens, UniProt Q9NWZ3)
T2 sequence (Q9NWZ3 whole entry): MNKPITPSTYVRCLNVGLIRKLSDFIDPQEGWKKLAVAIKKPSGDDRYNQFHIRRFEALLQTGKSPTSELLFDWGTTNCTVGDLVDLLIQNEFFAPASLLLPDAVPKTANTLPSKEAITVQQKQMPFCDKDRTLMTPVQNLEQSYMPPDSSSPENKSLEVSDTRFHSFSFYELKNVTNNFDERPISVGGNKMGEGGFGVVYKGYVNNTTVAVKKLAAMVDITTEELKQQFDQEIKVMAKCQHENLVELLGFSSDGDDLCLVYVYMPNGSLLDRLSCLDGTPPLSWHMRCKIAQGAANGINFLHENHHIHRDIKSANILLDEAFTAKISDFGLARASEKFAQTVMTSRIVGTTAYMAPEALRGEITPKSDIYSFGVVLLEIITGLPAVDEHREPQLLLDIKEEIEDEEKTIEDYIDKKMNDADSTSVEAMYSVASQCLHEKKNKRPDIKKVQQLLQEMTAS

[40] = Drug metabolism in male Sprague-Dawley rat liver microsomes assessed as oxidative metabolism at methyl-THF moiety at 10 uM incubated for 60 mins by LC-MS/MS analysis; assay type: ADME, Microsome; details: 1 h
[41] = system: MDR1 (P-gp); assay: Efflux ratio of apparent permeability across basolateral to apical side over apical to basolateral side in MDCK-MDR1 cells at 1 uM incubated for 120 mins by LC-MS/MS analysis; assay type: ADME, cell-based, Canis lupus familiaris; details: dog
[42] = Drug metabolism in human liver microsomes assessed as oxidative metabolism at methyl-THF moiety at 10 uM incubated for 60 mins by LC-MS/MS analysis; assay type: ADME, Microsome; details: 1 h
[43] = Unbound brain-to-plasma concentration ratio in iv dosed rat measured at 4 to 24 hrs by LC-MS/MS analysis; assay type: ADME, organism-based; details: brain and plasma, time 4-24 hrs, read-out: K(p,uu,brain)

With `Cc1cnc2c(NC(=O)c3cn4cc(C56COC(C)(C5)C6)nc4nc3OC(C)C)cnn2c1` the CL free [1] was 1.8 L/h/kg, the “Cp(f)” value [2] was 0.01 µM and the bioavailability [3] was 96%. It also gave a half-life [4] of 10 h, a half-life [5] of 8.3 h and an AUC(0-inf) [6] of 3.19 µg·h/mL. For the same compound, the Tmax [7] was 2 h, the CL free [8] was 0.318 L/h/kg and the bioavailability [9] was 95%. The bioavailability [10] was 91%, the CLint scaled [11] was less than 0.3 L/h/kg and the AUC(0-inf) [12] was 6.53 µg·h/mL. It also gave an AUC(0-inf) [13] of 9.46 µg·h/mL, a Tmax [14] of 4.7 h and a Tmax [15] of 2.6 h. For the same compound, the Tmax [16] was 1 h, the clearance [17] was 0.126 L/h/kg and the Vd [18] was 0.75 L/kg. For the same compound, the CL free [19] was 1.14 L/h/kg, the clearance [20] was 0.162 L/h/kg and the inhibition [21] was “Dose-Dependent Effect”. The inhibition [22] was “Dose-Dependent Effect”, the logD [23] was 2.9 and the AUC(0-inf) [24] was 6.44 µg·h/mL. The inhibition [25] was “Dose-Dependent Effect”, the clearance [26] was 0.21 L/h/kg and the CL free [27] was 0.84 L/h/kg. It also gave a Vd [28] of 2.8 L/kg, a half-life [29] of 12 h and a Vd [30] of 2.2 L/kg. For the same compound, the IC50 ([31]; Homo sapiens, Blood) was 0.2 µM, the fIC50 ([31]; time 5 hrs) was 13 nM and the Vd [32] was 1.7 L/kg. For the same compound, the half-life [33] was 5 h, the bioavailability [34] was 98% and the CLint scaled [35] was 0.15 L/h/kg. For the same compound, the clearance [36] was 0.108 L/h/kg and the Activity [37] was greater than 80%.

In the case of `CCOc1cc2nc(C[C@@H]3CCOC3)cn2cc1NC(=O)c1cccc(C(F)F)n1`, the CLint scaled [38] is reported as 10.3 L/h/kg, the CLint scaled [11] is reported as 3.72 L/h/kg and the IC50 [39] is reported as 0.0009 µM. The Drug metabolism [40] was “Metabolite_Detected”, the efflux ratio at 2 h, 1 µM [41] was 1.5 and the Drug metabolism [42] was “Metabolite_Detected”. It also gave a Kp uu [43] of 0.9.
